39 compounds from ChEMBL document CHEMBL1157682, “In silico prediction of human carboxylesterase-1 (hCES1) metabolism combining docking analyses and MD simulations” (Bioorg Med Chem, 2010) can be followed below.

“And” between values parts separate entries of the source, which are not always exact repeats. Identical values can stand only once.

This series concerns the target T1, Liver carboxylesterase 1 (Homo sapiens, UniProt P23141).
T1 sequence (P23141 whole entry): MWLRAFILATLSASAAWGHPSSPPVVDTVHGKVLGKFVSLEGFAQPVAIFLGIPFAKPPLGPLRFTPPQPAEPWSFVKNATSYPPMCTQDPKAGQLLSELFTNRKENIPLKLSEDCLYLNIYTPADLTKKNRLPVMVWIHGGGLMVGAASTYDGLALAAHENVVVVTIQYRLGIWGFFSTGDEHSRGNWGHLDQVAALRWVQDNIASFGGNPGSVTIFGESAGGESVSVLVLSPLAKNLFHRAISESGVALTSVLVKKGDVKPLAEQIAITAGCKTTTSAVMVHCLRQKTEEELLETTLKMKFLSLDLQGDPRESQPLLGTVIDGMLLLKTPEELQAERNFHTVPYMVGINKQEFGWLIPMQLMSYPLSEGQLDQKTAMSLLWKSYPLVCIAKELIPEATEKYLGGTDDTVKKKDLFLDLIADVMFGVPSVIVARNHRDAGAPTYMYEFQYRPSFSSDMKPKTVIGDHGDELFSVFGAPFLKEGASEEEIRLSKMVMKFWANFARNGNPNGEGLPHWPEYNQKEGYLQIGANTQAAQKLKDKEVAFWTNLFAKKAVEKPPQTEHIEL
As to the kind of experiment: Activity at human recombinant CES1 expressed in baculovirus-infected Spodoptera frugiperda Sf21 cells assessed as substrate hydrolysis by fluorescence assay.
Turning to `CCc1c2c(nc3ccc(OC(=O)N4CCC(N5CCCCC5)CC4)cc13)-c1cc3c(c(=O)n1C2)COC(=O)[C@]3(O)CC` [IRINOTECAN], the pKm is listed as 2.84.
Turning to `CCOC(=O)[C@H](CCc1ccccc1)N[C@@H](C)C(=O)N1Cc2ccccc2C[C@H]1C(=O)O`, the pKm came to 3.87.
As to `CCOC(=O)[C@H](CCc1ccccc1)N[C@H]1CCCN2CCC[C@@H](C(=O)O)N2C1=O` [CILAZAPRIL], the pKm is 2.89.
Regarding `COc1ccc2cc([C@@H](C#N)OC(=O)[C@@H]3[C@@H](C=C(Cl)Cl)C3(C)C)ccc2c1`, the pKm worked out at 6.15.
The result for `COC(=O)[C@H](c1ccccc1)[C@H]1CCCCN1` [DEXMETHYLPHENIDATE] reads 4.36; that for `COc1cc(C(=O)OCCCN2CCCN(CCCOC(=O)c3cc(OC)c(OC)c(OC)c3)CC2)cc(OC)c1OC` [DILAZEP], 3.81.
For `CCOC(=O)C1=C[C@@H](OC(CC)CC)[C@H](NC(C)=O)[C@@H](N)C1` [OSELTAMIVIR], the pKm came out at 3.75.
Consider `CC(=O)O[C@H]1C=C[C@H]2[C@H]3Cc4ccc(O)c5c4[C@@]2(CCN3C)[C@H]1O5`, for which the pKm was found to be 2.08.
For the compound `CCCC(=O)Oc1ccc([N+](=O)[O-])cc1`, the pKm turned out to be 3.89.
With `CCCCCOC(=O)Nc1nc(=O)n([C@@H]2O[C@H](C)[C@@H](O)[C@H]2O)cc1F` [CAPECITABINE], the pKm worked out at 2.89.
For the compound `COc1ccc2cc(C(C#N)OC(=O)C3C(C)(C)C3(C)C)ccc2c1` (centres undefined), the pKm stood at 5.82.
On to `CCOC(=O)[C@H](CCc1ccccc1)N[C@H]1CCc2ccccc2N(CC(=O)O)C1=O` [BENAZEPRIL], for which the pKm is reported as 3.13.
Regarding `CCOC(=O)[C@H](CCc1ccccc1)N[C@@H](C)C(=O)N1C(=O)N(C)C[C@H]1C(=O)O`, the pKm amounted to 3.54.
The result for `COc1ccc2cc([C@H](C#N)OC(=O)[C@@H]3[C@@H](C=C(Cl)Cl)C3(C)C)ccc2c1` reads 5.77.
For the compound `COC(=O)[C@H](c1ccccc1Cl)N1CCc2sccc2C1` [CLOPIDOGREL], the pKm is reported as 4.25.
`CC(=O)Oc1ccc2c(C)cc(=O)oc2c1`: the pKm amounted to 3.1.
As for `CC1(C)[C@@H](C=C(Cl)Cl)[C@@H]1C(=O)OCc1cccc(Oc2ccccc2)c1` (stereo in doubt), the pKm is 5.01.
In the case of `COc1ccc2cc([C@H](C#N)OC(=O)[C@H]3[C@H](C=C(Cl)Cl)C3(C)C)ccc2c1`, the pKm was found to be 5.72.
The value for `COc1ccc2cc([C@H](C#N)OC(=O)[C@H]3[C@@H](C=C(Cl)Cl)C3(C)C)ccc2c1` was 5.82; that for `CC(=O)Oc1ccc2c3c1O[C@H]1[C@@H](OC(C)=O)C=C[C@H]4[C@@H](C2)N(C)CC[C@@]341` [DIACETYLMORPHINE] was 2.2.
With `COC(=O)[C@@H](c1ccccc1)[C@@H]1CCCCN1`, the pKm turned out to be 4.05.
As to `COC(=O)[C@H]1[C@@H](OC(=O)c2ccccc2)C[C@@H]2CC[C@H]1N2C` [COCAINE], the pKm is 3.92.
`N[C@@H](Cc1ccccc1)C(=O)OC[C@H]1O[C@@H](n2cc(F)c(=O)[nH]c2=O)C[C@@H]1O`: the pKm is listed as 3.34.
In the case of `CC(=O)Oc1ccc([N+](=O)[O-])cc1` [4-NITROPHENYL ACETATE], the pKm stood at 3.44.
For `COc1ccc2cc([C@@H](C#N)OC(=O)[C@H]3[C@H](C=C(Cl)Cl)C3(C)C)ccc2c1`, the pKm came out at 5.62.
The result for `CCOC(=O)[C@H](CCc1ccccc1)N[C@H]1CS[C@H](c2cccs2)CN(CC(=O)O)C1=O` [TEMOCAPRIL] reads 3.1; that for `COc1ccc2cc([C@@H](C#N)OC(=O)[C@H]3[C@@H](C=C(Cl)Cl)C3(C)C)ccc2c1`, 5.85.
Consider `CC(C)=C[C@H]1[C@H](C(=O)OCc2coc(Cc3ccccc3)c2)C1(C)C` (relative stereo), for which the pKm came out at 5.17.
The result for `COc1ccc2cc([C@H](C#N)OC(=O)[C@@H]3[C@H](C=C(Cl)Cl)C3(C)C)ccc2c1` reads 6.52.
Turning to `CC1(C)[C@H](C=C(Cl)Cl)[C@H]1C(=O)OCc1cccc(Oc2ccccc2)c1` (stereo in doubt), the pKm was determined as 5.01.
Consider `CC(C)C[C@H](N)C(=O)OC[C@H]1O[C@@H](n2cc(F)c(=O)[nH]c2=O)C[C@@H]1O`, for which the pKm was found to be 3.01.
Turning to `CN(C)C(=O)COC(=O)Cc1ccc(OC(=O)c2ccc(NC(=N)N)cc2)cc1` [CAMOSTAT], the pKm came out at 3.15.
For `CC(C)[C@H](N)C(=O)OC[C@H]1O[C@@H](n2cc(F)c(=O)[nH]c2=O)C[C@@H]1O`, the pKm was determined as 2.45.
For `N[C@@H](CC(=O)O)C(=O)OC[C@H]1O[C@@H](n2cc(F)c(=O)[nH]c2=O)C[C@@H]1O`, the pKm turned out to be 2.52.
Turning to `CCOC(=O)C1(c2ccccc2)CCN(C)CC1` [MEPERIDINE], the pKm was found to be 2.72.
Turning to `CCOC(=O)[C@H](CCc1ccccc1)N[C@@H](C)C(=O)N(CC(=O)O)C1Cc2ccccc2C1`, the pKm stood at 2.82.
With `COc1ccc(C(=O)N2CCCC2=O)cc1`, the pKm was 4.07 and 4.02.
Regarding `CC1(C)[C@H](C(=O)OCc2cccc(Oc3ccccc3)c2)[C@@H]1C=C(Cl)Cl`, the pKm is 4.62.
The result for `CC1(C)[C@H](C=C(Cl)Cl)[C@@H]1C(=O)OCc1cccc(Oc2ccccc2)c1` reads 4.62.
